In article PMC10011554, “BET inhibitor trotabresib in heavily pretreated patients with solid tumors and diffuse large B-cell lymphomas” (Nature Communications, 2023):
Where two headings read alike, the source gives them in different places.

Key:
[1] = Plasma pharmacokinetics and food effect, part C; assay type: in vivo, human; conditions: 45 mg/day; for AUC(0-t) / Cmax / Tmax / AUC(0-inf) / half-life / Vd/F: human, plasma, oral; for Cmax: n = 15, read-out: Cmax, GM (% GCV); for Tmax: n = 15, read-out: Median tmax (range); for AUC(0-inf): n = 15, read-out: AUCinf, GM (% GCV); for half-life: n = 15, read-out: Mean t½ (% CV) (converted); for Vd/F: n = 15, read-out: Vss/F, GM (% GCV)
Description: Response was assessed using Response Evaluation Criteria in Solid Tumors (RECIST) v1.1[54] in patients with solid tumors, International Working Group criteria in patients with DLBCL[55], and Response Assessment in Neuro-Oncology (RANO) criteria[56] in patients with CNS tumors (astrocytoma and glioblastoma). For patients with BCC, the response was assessed using a combination of radiological assessment of target lesions per RECIST v1.1, digital clinical photography assessed per World Health Organization (WHO) criteria, and punch biopsies to confirm CR. PK parameters assessed included Cmax, tmax, AUC, t½, apparent clearance (CL/F), and apparent volume of distribution (Vz/F).
Serial blood samples for PK and pharmacodynamic analyses were collected for each dosing schedule after the first and last doses in cycle 1. Additional blood samples for assessment of the food effect on trotabresib PK in part C were collected during cycle 2. The food effect–evaluable population comprised all patients with adequate PK data to allow calculation of trotabresib AUC from time 0 (day 1) to day 22 from both the fed and fasted treatment periods and who had completed a 4-h post-dose fast during the fasted cycle or consumed the entire high-fat, high-calorie meal during the fed cycle and had received all trotabresib doses during both treatment periods.

[2] = Biopharmaceutic and physicochemical profile
[3] = system: GLI1 gene expression in MIA-PaCa-2 pancreatic adenocarcinoma cells; design: method as in Investigator's Brochure; conditions: MIA-PaCa-2 cells, ref Investigator's Brochure; read-out: IC50, inhibition of GLI1 gene expression; cited from earlier work
SU-DHL-2 (ABC DLBCL) = system: SU-DHL-2 (ABC DLBCL); design: method as in Report CC-90010-Pharm-1018; conditions: SU DHL 2, Experiment 2, ref Report CC-90010-Pharm-1018; read-out: absolute IC50, proliferation; cited from earlier work
KARPAS-422 (GCB DLBCL) = system: KARPAS-422 (GCB DLBCL); design: method as in Report CC-90010-Pharm-1018; conditions: KARPAS-422, Experiment 1, ref Report CC-90010-Pharm-1018; read-out: absolute IC50, proliferation; cited from earlier work
OCI-LY-10 (ABC DLBCL) = system: OCI-LY-10 (ABC DLBCL); design: method as in Report CC-90010-Pharm-1018; conditions: OCI-LY-10, Table 2, ref Report CC-90010-Pharm-1018; read-out: absolute IC50, proliferation; cited from earlier work
SU-DHL-4 (DOX-R) = system: SU-DHL-4 (DOX-R); design: method as in Report CC-90010-Pharm-1018; conditions: Table 2, ref Report CC-90010-Pharm-1018, read-out: absolute IC50, proliferation; cited from earlier work
[4] = system: COH69 TNBC PDX-derived model; design: method as in Investigator's Brochure; conditions: COH69, ref Investigator's Brochure; read-out: IC50, colony formation; cited from earlier work
[5] = design: method as in Investigator's Brochure; conditions: 2 hours postdose, ref Investigator's Brochure, cited from earlier work
[6] = design: method as in Unpublished data from Celgene Corporation; conditions: ref Unpublished data from Celgene Corporation, cited from earlier work
[7] = design: method as in Investigator's Brochure; conditions: dogs, ref Investigator's Brochure, cited from earlier work
OATP1B1 = system: OATP1B1; design: method as in Investigator's Brochure; conditions: OATP1B1, ref Investigator's Brochure; read-out: IC50, transporter inhibition; cited from earlier work
OCT2 = system: OCT2; design: method as in Investigator's Brochure; conditions: OCT2, ref Investigator's Brochure; read-out: IC50, transporter inhibition; cited from earlier work
OAT1 = system: OAT1; design: method as in Investigator's Brochure; conditions: OAT1, 30 µM, ref Investigator's Brochure; cited from earlier work
P-gp = system: P-gp; design: method as in Investigator's Brochure; conditions: ref Investigator's Brochure; cited from earlier work
[8] = design: method as in Investigator's Brochure; conditions: ref Investigator's Brochure, cited from earlier work
[9] = system: human ether-à-go-go-related gene (hERG); design: method as in Investigator's Brochure; conditions: ref Investigator's Brochure; cited from earlier work
[10] = ref Investigator's Brochure, cited from earlier work

For `Cn1cc(-c2cc(S(C)(=O)=O)ccc2OCC2CC2)c2ccccc2c1=O` [trotabresib], the “Clss/F, GM (% GCV)” value ([1]; day 4, fasted, n = 15) was 2.60 (25.89) L/h, the “Median tmax (range)” value ([1]; day 4, fasted, n = 15) was 1.50 (1.00–3.00) h and the “Clss/F, GM (% GCV)” value ([1]; day 4, fed, n = 15) was 2.65 (28.52) L/h. It also gave an AUC(0-t) ([1]; cycle 1 day 1, fasted, n = 14, read-out: AUC0–24, GM (% GCV)) of 6650 ng·h/mL, a Cmax ([1]; cycle 1 day 1, fasted) of 560 ng/mL and a Tmax ([1]; cycle 1 day 1, fasted) of 1.55 h. The AUC(0-t) ([1]; day 4, fasted, n = 15, read-out: AUC0–24, GM (% GCV)) was 17300 ng·h/mL, the AUC(0-inf) ([1]; day 4, fasted) was 66500 ng·h/mL and the AUC(0-t) ([1]; day 4, fasted, n = 15, read-out: AUClast, GM (% GCV)) was 65100 ng·h/mL. The Cmax ([1]; day 4, fasted) was 1120 ng/mL, the half-life ([1]; day 4, fasted) was 69.1 h and the Vd/F ([1]; day 4, fasted) was 235 L. It also gave an AUC(0-t) ([1]; day 4, fed, n = 14, read-out: AUC0–24, GM (% GCV)) of 16800 ng·h/mL, an AUC(0-inf) ([1]; day 4, fed) of 67200 ng·h/mL and an AUC(0-t) ([1]; day 4, fed, n = 15, read-out: AUClast, GM (% GCV)) of 65600 ng·h/mL. The Cmax ([1]; day 4, fed) was 904 ng/mL, the half-life ([1]; day 4, fed) was 67.8 h and the Tmax ([1]; day 4, fed) was 4 h. For the same compound, the Vd/F ([1]; day 4, fed) was 228 L, the ionization [2] was “non-ionizable” and the “Biopharmaceutics Classification System (BCS) behavior” value ([2]; data on file) was “Category II like”. For the same compound, the IC50 [3] was 240 nM, the IC50 (SU-DHL-2 (ABC DLBCL)) was 100 nM and the IC50 (KARPAS-422 (GCB DLBCL)) was 320 nM. The IC50 (OCI-LY-10 (ABC DLBCL)) was 418 nM, the IC50 (SU-DHL-4 (DOX-R)) was 899 nM and the IC50 [4] was 70 nM. For the same compound, the maximally-measured tumor level ([5]; COH70, 2 mg/kg) was 1.3 ± 0.3 µM, the maximally-measured tumor level ([5]; COH70, 10 mg/kg) was 6.7 ± 1.7 µM and the weight loss ([6]; GBM15, 15 mg/kg/dose group) was -6.6%. For the same compound, the weight loss ([6]; GBM15, 25 mg/kg/dose group) was -3.7%, the weight loss ([6]; GBM15, 37.5 mg/kg/dose group) was -3.1% and the mean oral bioavailability [7] was 76%. The “accumulation after repeat dosing” value ([7]; toxicokinetics) was “up to 3 fold”, the IC50 (OATP1B1) was 4940 nM and the IC50 (OCT2) was 8240 nM. For the same compound, the “inhibition of mediated transport” value (OAT1) was 45.6%, the transporter substrate status (P-gp) was “substrate of P-gp” and the severely toxic dose ([8]; 4-week rat study, 3 days on/4 days off) was at least 20 mg base/kg/dose. For the same compound, the “overarching rat STD10” value ([8]; 3 days-on/4 days-off schedule) was 20 mg base/kg/dose, the STD10 ([8]; female rats) was 20 mg base/kg/dose and the STD10 ([8]; male rats) was 30 mg base/kg/dose. For the same compound, the “functional observational battery (FOB) effects” value ([8]; rat) was “no CC-90010-related FOB effects”, the “mean exposure corresponding to the rat STD10” value [8] was 52800 ng·h/mL and the IC50 [9] was 24300 nM. The severely toxic dose ([10]; 4-week Beagle dog study) was 7.50 mg base/kg/dose, the “cardiovascular and respiratory effects” value ([10]; conscious Beagle dogs) was “no CC-90010-related effects on electrocardiograms, heart rate” and the “highest non-severely toxic dose (HNSTD)” value ([10]; dog, 3-days-on/4-days-off schedule) was 3.75 mg base/kg/dose. The “mean exposure corresponding to the dog HNSTD” value [10] was 10000 ng·h/mL.
